Experimental data published in patent publication US20240041827A1, “COMPOSITIONS FOR THE TREATMENT OF FAT RELATED CONDITIONS AND DISORDERS” (priority 2020, published 2024).

Assay: in vitro
Method: Human visceral preadipocytes were seeded in 96-well white clear bottom plates at 10,000 cells per well in 100 μl pre-adipocyte medium and incubated overnight at 37° C. 5% CO2. On the following day, adipogenic differentiation was induced by addition of 100 μl/well differentiation medium and incubation continued for 5 days. Adipogenic differentiation was verified by microscopic evaluation, addition of adipored reagents and fluorescent measurement at Ex485 nm/Em572 nm. […] Staurosporine (1 μM) and 0.2% DMSO were used as controls. Plates were incubated at 37° C. 5% CO2 for 2, 6 and 24 hours. Following incubation, cytotoxicity was measured using Cell Titer Glo 2.0 (Promega).
Test Item RZL-12 (1-300 μM) was prepared on the day of the testing as 150 mM stock solutions in DMSO. The 150 mM represents a 500×stock of the highest desired tested concentration. The 150 mM stock solution was first serially diluted in DMSO to acquire 500×stock solutions for each of the RZL-012 concentrations. The 500×stock solutions were then diluted 1:25 in medium to acquire 20×intermediate stock solutions. Finally, the 20×intermediate stock solutions were further diluted 1:20 in the assay (on the plate) that included seeded cells.
The 600 μM represents a 20× stock of the highest desired tested concentration. […] Finally, the 20×intermediate stock solutions were further diluted 1:20 in the assay plate that included seeded cells.
Human visceral pre-adipocytes (HPrAD-vis): HPrAD-vis cells (Lonza cat #PT-5005) were thawed at 37° C. and transferred into 50 ml tubes containing pre-adipocytes PGM-2 growth medium (PBM-2, 10% FBS, 1-glutamine, GA-1000). Cells were centrifuged at 300 g for 10 minutes, the supernatant was removed (Leaving about 1 ml of wash medium for not disrupting the cells) and 2 ml fresh PGM-2 medium was added. After resuspension, cells were counted and seeded in T-75 and T25 flasks at a density of 9,000 cells/cm^2 ([…], 225,000 cells/T25 flask). Medium was changed every 2-3 days until reached confluence of 70%.
Cells were sub-cultured only once, as soon as they reached 70% confluence. For this purpose, the culture medium of each flask was removed and cells were washed once with 5 ml PBS. The flask was shaken to ensure that the entire surface was covered and the PBS was removed. Then, 3 ml/T75 flask or 1 ml/T25 flask of fresh dedicated Trypsin/EDTA solution (from Lonza) was added and the flasks were incubated for 3-4 minutes at RT until ˜90% cells were detached. The Trypsin/EDTA solution was then neutralized by addition of 6 ml/T75 flask or 3 ml/T25 flask of full PGM-2 growth medium. Cells were collected in 50 ml tubes and centrifuged 10 minutes at 300 g. The supernatant was removed and the cells were resuspended in 3 ml fresh medium. Cells were then counted using a haemacytometer slide after being diluted 1:2 in trypan blue (SIGMA). For sub-culturing, cells were seeded in new T75 flasks at a density of 9,000 cells/cm^2 containing 15 ml fresh growth medium. Alternatively, the cells were seeded in 96-well culture plates at a density of 10,000 cells/well for the cell treatments.
HPrAD-vis cells: HPrAD-vis passaged once were seeded in 96-well plates as described above (10000cells/well in 100 μl medium) and allowed to settle overnight at 37° C., 5% CO2. Following day, adipogenic differentiation was induced by addition of 100 μl/well differentiation medium and incubated for 5 days. Adipogenic differentiation was verified by microscopic evaluation, addition of adipored reagents and fluorescent measurement at Ex485 nm/Em572 nm. In the morning of day 6, test and reference items were prepared as described above. Cells' medium was replaced with 90 μl fresh differentiation medium. […] Staurosporine (1 μM) and 0.2% DMSO were used as controls. Plates were incubated at 37° C. 5% CO2 for 2, 6 and 24 hours. Following incubation, cell viability was determined using the CellTiter-Gg® viability reagent (Promega) with reading of plates for luminescence. […]

Work on `C[N+](C)(C)CCCCCn1c2ccc(Br)cc2c2cc(Br)ccc21.[Cl-]` [RZL-012, 5-(3,6-dibromo-9H-carbazol-9-yl)-N,N,N-trimethylpentan-1-aminium chloride] yielded an IC50 of about 30 µM.
